Counter-ions that a name gives are not always drawn.
What was measured:
[1] = target: T1, KRAS_WT and SOS1 (Homo sapiens, UniProt P01116); test: Inhibition of KRAS_WT/SOS1 binding (Cisbio binding kit, 665/615 ratio), Effect Embodiment C; conditions: read-out: GTP-KRAS-WT:SOS1 IC50
T1 construct: purchased
Summary of the method: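 Compounds tested as 3-fold, 11-point dilutions in duplicate at 1% DMSO final against the KRAS_WT/SOS1 binding system. IC50 derived by nonlinear regression fit.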

[2] = target: T2, KRAS-G12D and SOS1 (Homo sapiens, UniProt P01116, G12D); test: Inhibition of KRAS-G12D/SOS1 binding (Cisbio binding kit, 665/615 ratio), Effect Embodiment A; conditions: read-out: GTP-KRAS-G12D:SOS1 IC50
T2 construct: purchased
Summary of the method: (§1)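 Compounds are tested over eleven threefold dilution steps in duplicate, with final DMSO at 1%.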

[3] = target: T3, KRAS_G12D and cRAF (Homo sapiens, UniProt P01116, G12D); test: Inhibition of KRAS_G12D/cRAF binding (Cisbio binding kit, 665/615 ratio), Effect Embodiment B; conditions: read-out: GTP-KRAS-G12D:CRAF IC50
T3 construct: purchased
Summary of the method: as §1

T1 sequence (P01116 1-188 isoform P01116-2): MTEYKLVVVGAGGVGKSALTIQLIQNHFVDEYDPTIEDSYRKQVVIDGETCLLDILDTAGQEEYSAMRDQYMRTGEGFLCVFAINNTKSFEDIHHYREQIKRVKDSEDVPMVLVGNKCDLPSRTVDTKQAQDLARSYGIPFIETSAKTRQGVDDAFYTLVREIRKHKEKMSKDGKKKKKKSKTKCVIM
T2 sequence (P01116 1-188 isoform P01116-2 G12D): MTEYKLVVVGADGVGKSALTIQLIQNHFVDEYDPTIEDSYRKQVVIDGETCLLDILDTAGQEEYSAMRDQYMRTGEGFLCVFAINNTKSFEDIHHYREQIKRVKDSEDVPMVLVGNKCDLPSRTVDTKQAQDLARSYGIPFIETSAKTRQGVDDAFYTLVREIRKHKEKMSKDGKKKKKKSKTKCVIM
T3 sequence (P01116 1-188 isoform P01116-2 G12D): as above

SMILES | IC50 [1] [nM] | IC50 [2] [nM] | IC50 [3] [nM]
CCC(COc1nc(N2CC3CCC(C2)N3)c2cc(Cl)c(-c3cc(O)cc4ccccc34)c(F)c2n1)CN1C2CCC1COC2 (single isomer, unassigned) [Compound 201b, (4S or 4R)-4-(2-((2S or 2R)-2-(3-oxa-8-azabicyclo[3.2.1]octan-8-ylmethyl)butoxy)-4-((1R,5S)-3,8-diazabicyclo[3.2.1]octan-3-yl)-6-chloro-8-fluoroquinazolin-7-yl)naphthalen-2-ol formate] | 2180 | 54.6 | 45.8
CN(C)C1CN(c2nc(N3CCNC4CC43)c3cc(Cl)c(-c4cc(O)cc5ccccc45)c(F)c3n2)C1 (single isomer, unassigned) [Compound 28, 4-((S or R)-4-((1R,6S or 1S,6R)-2,5-diazabicyclo[4.1.0]heptan-2-yl)-6-chloro-2-(3-(dimethylamino)azetidin-1-yl)-8-fluoroquinazolin-7-yl)naphthalen-2-ol trifluoroacetate] | 22500 | 312 | 4700
C[C@@H](COc1nc(N2CC3CCC(C2)N3)c2cc(Cl)c(-c3cc(O)cc4ccccc34)c(F)c2n1)CN1C[C@H](C)OC[C@@H]1C (single isomer, unassigned) [Compound 225, 4-((S or R)-4-((1R,5S)-3,8-diazabicyclo[3.2.1]octan-3-yl)-6-chloro-2-((R)-3-((2S,5S)-2,5-dimethylmorpholinyl)-2-methylpropoxy)-8-fluoroquinazolin-7-yl)naphthalenol formate] | 969 | 17.2 | 17.8
Oc1cc(-c2c(Cl)cc3c(N4CC5CCC(C4)N5)nc(OCC4(CN5C6CCC5COC6)COC4)nc3c2F)c2ccccc2c1 (single isomer, unassigned) [Compound 204, 4-((7S or 7R)-2-((3-(3-oxa-8-azabicyclo[3.2.1]octan-8-ylmethyl)oxa-3-yl)methoxy)-4-((1R,5S)-3,8-diazabicyclo[3.2.1]octan-3-yl)-6-chloro-8-fluoroquinazolin-7-yl)naphthalen-2-ol ditrifluoroacetate] | 4250 | 77.4 | 121
C[C@@H]1CN(CCCOc2nc(N3CC4CCC(C3)N4)c3cc(Cl)c(-c4cc(O)cc5ccccc45)c(F)c3n2)CCO1 (single isomer, unassigned) [Compound 241, 4-((S or R)-4-((1R,5S)-3,8-diazacyclo[3.2.1]octan-3-yl)-6-chloro-8-fluoro-2-(3-((R)-2-methylmorpholinyl)propoxy)quinazolin-7-yl)naphthalen-2-ol formate] | 3600 | 49.7 | 203
Oc1cc(-c2c(Cl)cc3c(N4CC5CCC(C4)N5)nc(OCCCN4C5CCC4COC5)nc3c2F)c2c(F)c(F)ccc2c1 (single isomer, unassigned) [Compound 248, (4S or 4R)-4-(2-(3-(3-oxa-8-azabicyclo[3.2.1]octan-8-yl)propoxy)-4-(1R,5S)-3,8-diazabicyclo[3.2.1]octan-3-yl)-6-chloro-8-fluoroquinazolin-7-yl)-5,6-difluronaphththalen-2-ol formate] | 98.1 | 31.1 | 67.2
CO[C@@H]1C[C@@H](COc2nc(N3CC4CCC(C3)N4)c3cnc(-c4cc(O)cc5ccccc45)c(F)c3n2)N(C)C1 [Compound 134, 4-(4-((1R,5S)-3,8-diazabicyclo[3.2.1]octan-3-yl)-8-fluoro-2-((2S,4R)-4-methxoy-1-methylpyrrolidin-2-yl)methoxy)pyridinyl[4,3-d]pyrimidin-7-yl)naphthalen-2-ol diformate] | 498 | 17.9 | 26.2
CN1CC[C@H]1COc1nc(N2CC3CCC(C2)N3)c2cc(Cl)c(-c3cc(O)cc4ccccc34)c(F)c2n1 (single isomer, unassigned) [Compound 100, 4-((S or R)-4-((1R,5S)-3,8-diazabicyclo[3.2.1]octan-3-yl)-6-chloro-8-fluoro-2-(S)-1-methylazetidin-2-yl)methoxy)quinazolin-7-yl)naphthalen-2-ol bitrifluoroacetate] | 504 | 19.1 | 53.7
CC(C)N(C)CCCOc1nc(N2CC3CCC(C2)N3)c2cc(Cl)c(-c3cc(O)cc4ccccc34)c(F)c2n1 (single isomer, unassigned) [Compound 50a, 4-((S or R)-4-((1R,5S)-3,8-diazabicyclo[3.2.1]octan-3-yl)-6-chloro-8-fluoro-2-(3-(isopropyl(methyl)amino)propoxy)quinazolin-7-yl)naphthalen-2-ol trifluoroacetate] | 1690 | 44.3 | 155
CN(CCCCN1CCN(CCCCN)CC1)CCCOc1nc(N2CC3CCC(C2)N3)c2cc(Cl)c(-c3cc(O)cc4ccccc34)c(F)c2n1 (single isomer, unassigned) [Compound 111, (S or R) 4-(2-(3-((4-(4-aminobutyl)piperazin-1-yl)butyl)(methyl)amino)propoxy)-4-((1R,5S)-3,8-diazabicyclo[3.2.1]octan-3-yl)-6-chloro-8-fluoroquinazolin-7-yl)naphthalen-2-ol pentahydrochloride] | 1110 | 22.4 | 107
CO[C@H]1C[C@H]2CC[C@@H](C1)N2C[C@@H](C)COc1nc(N2CC3CCC(C2)N3)c2cc(Cl)c(-c3cc(O)cc4ccccc34)c(F)c2n1 (single isomer, unassigned) [Compound 223, 4-((S or R)-4-((1R,5S)-3,8-diazabicyclo[3.2.1]octan-3-yl)-6-chloro-8-fluoro-2-((R)-3-((1R,3R,5S)-3-methoxy-8-azabicyclo[3.2.1]octan-8-yl)-2-methylpropoxy)quinazolin-7-yl)naphthalen-2-ol diformate] | 1700 | 17.5 | 15.6
Oc1cc(-c2c(Cl)cc3c(N4CC5CCC(C4)N5)nc(OCCN4C5CCC4COC5)nc3c2F)c2ccccc2c1 (single isomer, unassigned) [Compound 124, 4-((7S or R)-2-(2-(3-oxa-8-azabicyclo[3.2.1]octan-8-yl)-ethoxy)-4-((1R,5S)-3,8-diazabicyclo[3.2.1]octan-3-yl)-6-chloro-8-fluoroquinazolin-7-yl)naphthalen-2-ol dihydrochloride] | 2890 | 75.8 | 149
C[C@@H](COc1nc(N2CC3CCC(C2)N3)c2cc(Cl)c(-c3cc(O)cc4ccccc34)c(F)c2n1)CN1CCOC[C@H]1C (single isomer, unassigned) [Compound 239, 4-((S or R)-4-((1R,5S)-3,8-diazacyclo[3.2.1]octyl-3-yl)-6-chloro-8-fluoro-2-((R)-2-methyl-3-((R)-3-methylmorpholinyl)propoxy)quinazolin-7-yl)naphthalen-2-ol formate] | 496 | 15.3 | 18.3
CN1CCC[C@H]1COc1nc(N2CC3CCC(C2)N3)c2cc(Cl)c(-c3cc(O)cc4ccccc34)c(F)c2n1 (single isomer, unassigned) [Compound 170, (R or S)-4-(4-((1R,5S)-3,8-diazabicyclo[3.2.1]octan-3-yl)-6-chloro-8-fluoro-2-((S)-1-methylpyrrolidin-2-yl)methoxy)quinazolin-7-yl)naphthalen-2-ol dihydrochloride] | 270 | 12.8 | 24.4

Further lines, results first:

IC50 [1] [nM] | IC50 [2] [nM] | IC50 [3] [nM] | SMILES
44500 | 419 | 7910 | Oc1cc(-c2c(Cl)cc3c(N4CC5CCC(C4)N5)nc(N4CCNCC4)nc3c2F)c2ccccc2c1 (single isomer, unassigned) [Compound 57b, 4-((R or S)-4-((1R,5S)-3,8-diazabicyclo[3.2.1]octan-3-yl)-6-chloro-8-fluoro-2-(piperazin-1-yl)quinazolin-7-yl)naphthalen-2-ol]
2970 | 34.3 | 156 | CN1CCCC1CCOc1nc(N2CC3CCC(C2)N3)c2cc(Cl)c(-c3cc(O)cc4ccccc34)c(F)c2n1 (single isomer, unassigned) [Compound 96b, 4-((S or R)-4-((1R,5S)-3,8-diazabicyclo[3.2.1]octan-3-yl)-6-chloro-8-fluoro-2-(2-((R or S)-1-methylpyrrolidin-2-yl)ethoxy)quinazolin-7-yl)naphthalen-2-ol]
5400 | 60 | 134 | Oc1cc(-c2c(Cl)cc3c(N4CC5CCC(C4)N5)nc(OCC(F)CN4C5CCC4COC5)nc3c2F)c2ccccc2c1 (single isomer, unassigned) [Compound 179b, ((4R or 4S)-4-(2-((2S or 2R)-3-(3-oxa-8-azabicyclo[3.2.1]octan-8-yl)-2-fluoropropoxy)-4-((1R,5S)-3,8-diazabicyclo[3.2.1]octan-3-yl)-6-chloro-8-fluoroquinazolin-7-yl)naphthalen-2-ol diformate]
75.2 | 8.42 | 14.6 | CCc1c(F)ccc2cc(O)cc(-c3c(F)cc4c(N5CC6CCC(C5)N6)nc(OCCCN5C[C@@H](C)O[C@@H](C)C5)nc4c3F)c12 (single isomer, unassigned) [Compound 250a, (S or R)-4-(4-((1R,5S)-3,8-diazacyclo[3.2.1]octan-3-yl)-2-(3-((2R,6S)-2,6-dimethylmorpholinyl)propoxy)-6,8-difluoroquinazolin-7-yl)-5-ethyl-6-fluoronaphthalen-2-ol formate]
2190 | 47.7 | 110 | CN1CCC[C@H]1COc1nc(N2CC3CCC(C2)N3)c2cc(Cl)c(-c3cc(O)c(F)c4ccccc34)c(F)c2n1 (single isomer, unassigned) [Compound 89a, (S or R)-4-(4-((1R,5S)-3,8-diazabicyclo[3.2.1]octan-3-yl)-6-chloro-8-fluoro-2-(S)-1-methylpyrrolidin-2-yl)methoxy)quinazolin-7-yl)-1-fluoronaphthalen-2-ol hydrochloride]
